# In ChEMBL document CHEMBL1156465, “Structures of Mycobacterium tuberculosis 1-deoxy-D-xylulose-5-phosphate reductoisomerase provide new insights into catalysis” (J Biol Chem, 2007):
# Experiment: Inhibition of Escherichia coli DXR by spectrophotometric method
compound,measurement,value
O=CN(O)CCCP(=O)(O)O [FOSMIDOMYCIN],IC50,30 nM
